# From patent US8048924B2, “Methods and compositions employing 4-aminophenylacetic acid compounds” (Biocon Limited, priority 2001, dated 2011)
# Experiments:
# [1] = system: Clostridium difficile toxin A-induced colitis; assay: Toxin A-induced colitis, chronic oral administration in drinking water for 5 days; assay type: in vivo, Sprague-Dawley rats
# Experimental: Eighteen adult male Sprague-Dawley rats weighing 175-222 grams were divided into 3 groups each consisting of 6 animals: • 4-APAA (AA-002) 100 mg/kg orally+Toxin A (10 μg) injected into the lumen of the colon • Vehicle (DW) orally+Toxin A (10 μg) injected into the lumen of the colon • Vehicle (DW) orally
# Following 5 days of 4-APAA administration in drinking water, both ketamine (67 mg/kg) and xylazine (33 mg/kg) were administered, an isolated colonic segment was surgically created, and 10 μg of Clostridium difficile toxin A was injected into the lumen of the colon. After 3 hours, the rats were euthanized and colonic inflammation was assessed by quantitating luminal fluid accumulation and myeloperoxidase (MPO) content in the colon tissue. In addition, histological evaluation of the treated colon segments was completed.
# Drug Administration. In studies using chronic administration, sulfasalazine, APAZA™, and 4-APAA were administered in the drinking water at doses ranging from 0.1-100 mg/kg·d for 5 days. Sulfasalazine and APAZA™ were initially dissolved in 0.1 N NaOH at 30 times the desired final concentration and then the pH was adjusted to 8.5 with 1 N HCl and the solution was diluted 30-fold with distilled water. 4-APAA was dissolved in water. On the fifth day, the rats were fasted overnight (with access to their drinking water±sulfasalazine, APAZA™, or 4-APAA ad lib), anesthetized, and isolated colonic segments were surgically created as described below. In studies using acute administration, the rats were pretreated by injection of 4-APAA at doses of 10 or 100 μg in 200 μl of PBS (pH 7.4) into the lumen of the colonic segment using a 27 ga syringe needle. Toxin A (10 μg) in 200 μl of PBS (pH 7.4) was tested alone or injected into the lumen of the colonic segment 30 minutes after 4-APAA using a 27 ga syringe needle.
# Surgery. Isolated colonic segments were created in male Sprague-Dawley rats (150-175 g) as described previously for isolated ileal segments (see, Gastroenterol. 111: 1272-1280 (1996) and Proc. Natl. Acad. Sci. USA 91: 947-951 (1994). Rats fasted overnight with free access to drinking water were anesthetized by intramuscular injection of 67 mg/kg ketamine:33 mg/kg xylazine. A midline abdominal incision was made and colonic segments 5 cm in length were created by ligation with 4-0 silk sutures, taking care not to disturb the vascular supply. Toxin A (10 μg) in 400 μl of PBS (pH 7.4) was injected into the lumen of the colonic segment using a 27 ga syringe needle. Control rats were prepared similarly and their colonic segments were injected with the vehicles. The midline incision was then closed with a running suture, and the rats were placed on a heating pad at 37° C. for 3 hours. After 3 hours, the rats were euthanized and samples of the treated colonic segments were taken for analysis in vitro.
# Histopathology. The severity of colonic histological damage was assessed using formalin-fixed, paraffin-embedded, H&E-stained sections.
# Luminal Fluid Accumulation. Luminal fluid accumulation was measured gravimetrically. After 3 hours of treatment, the isolated colonic segments were removed, weighed, and their lengths were measured. Luminal fluid accumulation is expressed as mg wet weight per cm length.
# Myeloperoxidase Activity. Myeloperoxidase (MPO) activity was measured as described previously (see, J. Invest. Dermatol. 78: 206-209 (1982)). Briefly, pieces of control and treated colonic segments were homogenized in 0.5% hexadecyltrimethylammonium bromide in 50 mM KH2PO4 (pH 6), freeze/thawed three times, centrifuged at 4° C. for 2 minutes, and then the absorbance of each supernatant was read at 460 nm at 0, 30, and 60 seconds after the addition of 2.9 ml of o-dianisidine dihydrochloride to 0.1 ml supernatant. The maximal change in absorbance per minute was used to calculate the units of MPO activity based on the molar absorbency index of oxidized o-dianisidine of 1.13×10^4 M^−1 cm^−1. […]
# [2] = Single oral dose plasma pharmacokinetics and elimination of APAZA and metabolites in mice; assay type: in vivo, male CD-1 mice; settings: single oral dose of APAZA, male CD-1 mice
# Experimental: Initial single dose pharmacokinetic studies with the APAZA™ compound have been conducted in dogs and mice. A study was completed in order to determine the plasma pharmacokinetics and elimination of the APAZA™ compound and its metabolites (5-ASA, 4-APAA, 5-aceASA and 4-aceAPAA) following single oral dose administration to male CD-1 mice. […] When normalized to molar values, the Cmax values for all the APAZA™ metabolites were less than APAZA™; the values ranged from 2.68 to 13.8 μM. However, the normalized APAZA™ AUC∞ value was not greater than all the other metabolites; these values ranged from […]. […] The Tmax values for APAZA™ and its metabolites were 1 hour and 4 hours, respectively.
# [3] = system: DSS induced colitis; assay: Dextran sulfate sodium (DSS) colitis in the rat; assay type: in vivo, Sprague-Dawley rats; settings: oral gavage bid
# Experimental: The effectiveness of APAZA™ and sulfasalazine in ameliorating intestinal inflammation in a model of dextran sulfate sodium (DSS) induced colitis in Sprague-Dawley rats was determined. Thirty-six male Sprague-Dawley rats that were 7-8 weeks old and weighed 240-260 g were studied. […] After completion of the treatment period, rats were euthanized and the efficacy of the test drugs in inhibiting colitis was assessed by the following: • Disease Activity Index Scoring: • Body weight • Colon wet weight: body weight ratios • Colonic Myeloperoxidase (MPO) activity • Histopathological changes of the colon
# [4] = system: DNBS colitis; assay: Study AA-PH-003: oral and rectal APAZA and sulfasalazine in DNBS colitis; assay type: in vivo, male Lewis rats; set-up: Average Diarrhea Score Day 3: scale not given here; settings: for Colonic Inflammation Scores: scale 0-2
# Experimental: Study AA-PH-003 was designed to evaluate the anti-inflammatory efficacy of oral and rectal doses of APAZATM and sulfasalazine in the DNBS colitis model in rats. […] Thirty-five adult male Lewis rats (body weight 200-250 g) were studied. […] Animal body weights and incidence of diarrhea were recorded daily. […] Animals in the DNBS groups and the parallel deionized water group were sacrificed on day 5. Laparotomies and colectomies were performed and animals were scored for the presence and severity of intestinal adhesions, strictures, inflammation, and ulceration. Colon: body weight ratios were determined and colon histopathology was performed.
# [5] = 100 mg/kg·day in drinking water, 5 days
# [6] = 100 mg/kg·day in drinking water, 5 days, toxin A 10 μg
# [7] = orally + 30 mg DNBS, APAZA 200 mg/kg, sulfasalazine 265.6 mg/kg
# [8] = rectally + 30 mg DNBS, APAZA 200 mg/kg, sulfasalazine 265.6 mg/kg
# [9] = 1 mg/kg·day in drinking water, 5 days
# [10] = 10 mg/kg·day in drinking water, 5 days
smiles,measurement,setting,value
"O=C(O)Cc1ccc(/N=N/c2ccc(CC(=O)O)cc2)cc1 [4-APAA dimer, [4-(4-Carboxymethyl-phenylazo)-phenyl]-acetic acid]","toxin A-induced MPO activity, significance of inhibition",[1]; [5],significantly inhibited
same,"toxin A-induced luminal fluid accumulation, significance of inhibition",[1]; [5],did not inhibit
same,toxin A-induced structural damage of the colon (H&E),[1]; [5],did not inhibit
same,percent inhibition of toxin A-induced MPO activity,[1]; [6],60±9%
same,percent inhibition of toxin A-induced luminal fluid accumulation,[1]; [6],21±8%
"CC(=O)Nc1ccc(CC(=O)O)cc1 [4-aceAPAA, (4-acetylamino-phenyl)-acetic acid, reference compound]",plasma concentration at 24 hours,[2],below the limit of detection
CC(=O)Nc1ccc(O)c(C(=O)O)c1 [acetylated 5-ASA],t1/2,[2]; plasma,11.27 h
same,plasma concentration at 24 hours,[2],below the limit of detection
"O=C(O)c1cc(/N=N/c2ccc(S(=O)(=O)Nc3ccccn3)cc2)ccc1O [sulfasalazine, reference compound]","body weights, rats drinking DW versus DSS",[3]; days 10 and 11,statistically significant differences
same,"colon wet weight: body weight ratio, DSS versus DW","[3]; APAZA 100 mg/kg, sulfasalazine 133 mg/kg",increased
same,Disease Activity Index (DAI) score,"[3]; rats drinking 5% DSS, APAZA 100 mg/kg, sulfasalazine 133 mg/kg",significantly greater
same,colonic MPO activity,[3]; rats receiving DSS,significant increase
same,histological changes of the colon,[3]; rats receiving DSS,severe colitis
same,reduction relative to control in net colon: body weight (% BW) ratio,[4]; oral groups,38.4%
same,Average Diarrhea Score Day 3,[4]; [7],2.4
same,Colon Histopathology (# severe lesions),[4]; [7],8
same,Length of Colonic Inflammation (cm),[4]; [7],2.3 cm
same,Mean Body Weight,[4]; [7],215.4 g
same,Mean Colon Length (cm),[4]; [7],12.9 cm
same,Net Colon: Body Weight Ratio,[4]; [7],0.1862
same,Colonic Inflammation Scores,[4]; [7],1.4
same,Average Diarrhea Score Day 3,[4]; [8],2
same,Length of Colonic Inflammation (cm),[4]; [8],1.8 cm
same,Mean Body Weight,[4]; [8],217.0 g
same,Mean Colon Length (cm),[4]; [8],12.8 cm
same,Net Colon: Body Weight Ratio,[4]; [8],0.179
same,Colonic Inflammation Scores,[4]; [8],1
same,"toxin A-induced MPO activity, significance of inhibition",[1]; [9],did not significantly inhibit
same,"toxin A-induced luminal fluid accumulation, significance of inhibition",[1]; [9],did not significantly inhibit
same,toxin A-induced structural damage of the colon (H&E),[1]; [9],little effect
same,"toxin A-induced luminal fluid accumulation, significance of inhibition",[1]; [10],significantly inhibited
same,toxin A-induced structural damage of the colon (H&E),[1]; [10],little effect
same,"toxin A-induced MPO activity, significance of inhibition",[1]; [5],significantly inhibited
same,"toxin A-induced luminal fluid accumulation, significance of inhibition",[1]; [5],significantly inhibited
same,toxin A-induced structural damage of the colon (H&E),[1]; [5],did inhibit
same,doses that significantly inhibited toxin A-induced colitis,"[1]; chronically for 5 days in drinking water, doses tested 1-100",100 mg/kg·day
